Structures can show the parent of a compound that is named as a salt.

In general, melting point refers to the temperature, or range, at which the solid turns liquid. The compound `CCOc1ccc(C2=NN(c3ccc(C(=O)N4CCN(CCN5CCCC5)CC4)cc3)C(=O)[C@@H]3CC=CC[C@H]23)cc1OCC.Cl.Cl` [Compound 24, (4aS,8aR)-4-(3,4-Diethoxy-phenyl)-2-(4-{1-[4-(2-pyrrolidin-1-yl-ethyl)-piperazin-1-yl]-methanoyl}-phenyl)-4a,5,8,8a-tetrahydro-2H-phthalazin-1-one dihydrochloride] came in with a melting point of 185 to 186 °C.

Take `CCOc1ccc(C2=NN(c3ccc(C(=O)N4CCN(c5cnn(-c6ccccc6)c(=O)c5Cl)CC4)cc3)C(=O)[C@@H]3CC=CC[C@H]23)cc1OCC` [Compound 12, (4aS,8aR)-2-{4-[4-(5-Chloro-6-oxo-1-phenyl-1,6-dihydro-pyridazin-4-yl)-piperazine-1-carbonyl]-phenyl}-4-(3,4-diethoxy-phenyl)-4a,5,8,8a-tetrahydro-2H-phthalazin-1-one]: the melting point is 148 to 151 °C.

As for `COc1ccc(C2=NN(c3ccc(C(=O)N4CCN(CCN(C)C)CC4)cc3)C(=O)C3CC=CCC23)c2c1OC(C)(C)C2` (as salt: hydrochloride) [Compound 14, (4aS,8aR)-2-{4-[4-(2-Dimethylamino-ethyl)-piperazine-1-carbonyl]-phenyl}-4-(7-methoxy-2,2-dimethy-2,3-dihydro-benzofuran-4-yl)-4a,5,8,8a-tetrahydro-2H-phthalazin-1-one dihydrochloride], the melting point was 245 °C (dec.).

Take `COc1ccc(C2=NN(c3ccc(C(=O)N4CCN(CC(=O)N5CCOCC5)CC4)cc3)C(=O)[C@@H]3CC=CC[C@H]23)cc1OC.Cl`: the melting point is 168 to 169 °C.

As for `COc1ccc(C2=NN(c3ccc(C(=O)N4CCN(c5c(Cl)cncc5Cl)CC4)cc3)C(=O)[C@@H]3CC=CC[C@H]23)cc1OC` [Compound 15, (4aS,8aR)-2-(4-{1-[4-(3,5-Dichloropyridin-4-yl)-piperazin-1-yl]-methanoyl}-phenyl)-4-(3,4-dimethoxyphenyl)-4a,5,8,8a-tetrahydro-2H-phthalazin-1-one], the melting point is 137 to 139 °C.

Consider `CCOc1ccc(C2=NN(c3ccc(C(=O)N4CCN(CC5CCCO5)CC4)cc3)C(=O)[C@@H]3CC=CC[C@H]23)cc1OCC.Cl` (stereo partly drawn) [Compound 23, (4aS,8aR)-4-(3,4-Diethoxy-phenyl)-2-(4-{1-[4-(tetrahydro-furan-2-ylmethyl)-piperazin-1-yl]-methanoyl}-phenyl)-4a,5,8,8a-tetrahydro-2H-phthalazin-1-one hydrochloride], for which the melting point was 131 to 133 °C.

As for `CCOc1ccc(C2=NN(c3ccc(C(=O)N4CCN(CCCN5CCOCC5)CC4)cc3)C(=O)[C@@H]3CC=CC[C@H]23)cc1OCC.Cl.Cl` [Compound 22, (4aS,8aR)-4-(3,4-Diethoxy-phenyl)-2-(4-{1-[4-(3-morpholin-4-yl-propyl)-piperazin-1-yl]-methanoyl}-phenyl)-4a,5,8,8a-tetrahydro-2H-phthalazin-1-one dihydrochloride], the melting point is 170 to 171 °C.

The compound `COc1ccc(C2=NN(c3ccc(C(=O)N4CCN(C/C=C/c5ccccc5)CC4)cc3)C(=O)[C@@H]3CC=CC[C@H]23)c2c1OC(C)(C)C2.Cl` [Compound 8, (4aS,8aR)-4-(7-methoxy-2,2-dimethyl-2,3-dihydro-benzofuran-4-yl)-2-(4-{1-[4-((E)-3-phenyl-allyl)-piperazin-1-yl]-methanoyl}-phenyl)-4a,5,8,8a-tetrahydro-2H-phthalazin-1-one hydrochloride] returned a melting point of 230 to 231 °C.

The record behind these values is US7022696B2, “Piperazino-derivatives and their use as PDE4 inhibitor” (Altana Pharma AG, priority 2001, dated 2006).
